Data on 46 molecules can be found in patent US20240199648A1, “MAP4K1 INHIBITORS” (Blueprint Medicines Corporation, priority 2021, published 2024).

For orientation: IC50 means the concentration that gives 50% inhibition.

The target of the test is T1, MAP4K1 (HPK1) (Homo sapiens, UniProt Q92918).
T1 construct: purchased Invitrogen
T1 sequence (Q92918 whole entry): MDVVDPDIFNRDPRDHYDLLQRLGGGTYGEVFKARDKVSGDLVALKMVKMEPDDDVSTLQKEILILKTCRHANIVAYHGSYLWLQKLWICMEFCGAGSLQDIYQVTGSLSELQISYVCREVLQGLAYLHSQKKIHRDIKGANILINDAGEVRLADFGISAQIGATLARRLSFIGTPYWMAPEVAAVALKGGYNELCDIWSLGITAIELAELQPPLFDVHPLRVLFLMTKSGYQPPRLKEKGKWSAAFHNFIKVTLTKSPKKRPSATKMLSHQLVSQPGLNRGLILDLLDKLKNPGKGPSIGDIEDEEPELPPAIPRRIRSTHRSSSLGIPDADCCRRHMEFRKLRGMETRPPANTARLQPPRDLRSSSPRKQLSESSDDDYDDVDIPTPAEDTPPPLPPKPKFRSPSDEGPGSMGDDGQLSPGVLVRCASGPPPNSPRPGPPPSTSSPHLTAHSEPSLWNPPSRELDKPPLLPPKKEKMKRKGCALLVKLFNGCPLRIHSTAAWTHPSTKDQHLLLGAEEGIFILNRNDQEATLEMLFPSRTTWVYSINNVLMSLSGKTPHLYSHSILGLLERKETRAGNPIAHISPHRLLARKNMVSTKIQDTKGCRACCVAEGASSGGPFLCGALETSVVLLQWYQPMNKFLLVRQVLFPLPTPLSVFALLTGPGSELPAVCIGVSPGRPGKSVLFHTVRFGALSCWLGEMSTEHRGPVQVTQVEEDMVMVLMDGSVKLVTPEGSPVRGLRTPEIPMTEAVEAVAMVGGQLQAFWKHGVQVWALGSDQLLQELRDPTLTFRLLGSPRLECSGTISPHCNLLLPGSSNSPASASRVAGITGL
Put plainly: Inhibition of MAP4K1 biochemical enzymatic activity (EZReader 2 electrophoretic mobility shift assay). As to conditions: HPK1 (Invitrogen), S6K2tide 1.5 μM, 120 min; ATP 26 μM or 1000 μM (not stated which). From the text: MAP4K1 (HPK1) and relevant off-target enzymatic activity was monitored using the Perkin Elmer electrophoretic mobility shift technology platform—the EZReader 2. […] Within the linear, steady-state phase of the kinase enzymatic reaction, the mixed pool of phosphorylated (product) and non-phosphorylated (substrate) peptides was passed through the microfluidic system of the PerkinElmer EZ Reader 2, under an applied electric potential difference. The presence of the phosphate group on the product peptide provided a difference in mass and charge between that of the substrate peptide, resulting in a separation of the substrate and product pools in the sample (Perrin et al. 2010). As the product and substrate peptide mixture passes the lasers within the instrument, these pools are detected (λex=488 nm, λem=568 nm) and resolved as separate peaks. The ratio between these peaks reflects the activity of the compound at that concentration, in that well, under those conditions.
Inhibitors were dissolved in 100% DMSO at a stock concentration of 10 mM. A 100×, 10-point, 4-fold serial dilution of each inhibitor was created in 100% DMSO either manually or on a Hamilton STAR liquid handler, starting at a relevant concentration, usually 1 mM. A volume of 0.130 μL of each concentration was transferred to the relevant wells of a 384-well plate (Greiner 781 201) in diplicate using a TTPLabtech Mosquito nano-litre dispenser. Using a Multidrop Combi, the remaining constituents of the kinase reaction were added to the 130 nL of dosed compound as follows (see table below for final reaction details):
Enzyme activity assays at the ^APPKM for ATP or 1 mM ATP: In each well of a 384-well plate, 0.1-15 nM of untreated enzyme was incubated in a total of 13 μL of buffer (100 mM HEPES pH 7.5, 0.015% Brij 35, 10 mM MgCl2, 1 mM DTT) with 1.5 μM fluorescent peptid and 20-1000 μM ATP, at 25° C., for 60-180 minutes in the presence or absence of a dosed concentration series of compound (1% DMSO final concentration). The kinase reactions were stopped by the addition of 70 μl of Stop buffer (100 mM HEPES pH 7.5, 0.015% Brij 35, 35 mM EDTA and 0.2% of Coating Reagent 3 (Caliper Lifesciences)). The plates were read on a Caliper EZReader 2 as described above.
Background: A gel shift assay detects complexes by their altered migration in electrophoresis.
Consider `CO[C@H](C)C(=O)N1CC(Oc2ncc(C(C)(C)N)c3cc(Nc4ccc5c(n4)[C@@H](C)C(C)(C)OC5=O)ncc23)C1` (single isomer, unassigned) [Compound 88], for which the IC50 is 0.21 nM.

Consider `CC[C@H](N)c1cnc(OC2CN(C(=O)[C@@H]3C[C@@H]3F)C2)c2cnc(Nc3ccc4c(n3)[C@@H](C)[C@H](C)OC4=O)cc12` [Compound 59], for which the IC50 was 0.24 nM.

`CC(=O)N1CC(Oc2ncc(C(C)(C)N)c3cc(Nc4ccc5c(n4)[C@H](C)COC5=O)ncc23)C1` (single isomer, unassigned) [Compound 17]: the 50% inhibitory concentration (IC50) came to 0.49 nM.

With `C[C@@H]1OC(=O)c2ccc(Nc3cc4c(C(C)(C)N)cnc(OC5CN(C(=O)C6(C)CC6)C5)c4cn3)nc2[C@H]1C` [Compound 52], the IC50 is 0.18 nM.

In the case of `C[C@@H]1OC(=O)c2ccc(Nc3cc4c(C(C)(C)N)cnc(OC5CN(C(=O)C6(O)CC6)C5)c4cn3)nc2[C@H]1C` [Compound 55], the IC50 was determined as 0.16 nM.

Regarding `CC(=O)N1CC(Oc2ncc(C(C)(C)N)c3cc(Nc4ccc5c(n4)C4(CC4)C(C)(C)OC5=O)ncc23)C1` [Compound 30], the 50% inhibitory concentration (IC50) was 0.2 nM.

As for `C[C@@H]1c2nc(Nc3cc4c(C(C)(C)N)cnc(OC5CN(C(=O)[C@@H]6C[C@@H]6C)C5)c4cn3)ccc2C(=O)OC1(C)C` [Compound 67], the IC50 was 0.2 nM.

Take `C[C@@H]1c2nc(Nc3cc4c(C(C)(C)N)ccc(OCCOC(=O)N(C)C)c4cn3)ccc2C(=O)OC1(C)C` [Compound 114]: the IC50 was 0.07 nM.

Consider `COC(=O)N1CC(Oc2ncc(C(C)(C)N)c3cc(Nc4ccc5c(n4)[C@@H](C)[C@H](C)OC5=O)ncc23)C1` [Compound 27], for which the IC50 amounted to 0.3 nM.

As to `C[C@@H]1c2nc(Nc3cc4c(C(C)(C)N)cnc(OC5CN(C(=O)C6(C)CC6)C5)c4cn3)ccc2C(=O)OC1(C)C` [Compound 71], the IC50 turned out to be 0.27 nM.

Turning to `COC[C@@](C)(N)c1cnc(O[C@H]2CN(C(=O)C3CC3)[C@@H]2C)c2cnc(Nc3ccc4c(n3)[C@@H](C)[C@H](C)OC4=O)cc12` [Compound 89], the IC50 was determined as 0.35 nM.

`CC(=O)N1CC[C@H](Oc2ncc(C(C)(C)N)c3cc(Nc4ccc5c(n4)[C@@H](C)[C@H](C)OC5=O)ncc23)C1` [Compound 25]: the half-inhibitory concentration (IC50) is 1.38 nM.

With `C[C@@H]1c2nc(Nc3cc4c(C(C)(C)N)ccc(OC5CN(C(=O)C6CC6)C5)c4cn3)ccc2C(=O)OC1(C)C` [Compound 41], the IC50 is 0.1 nM.

Consider `COC(=O)N1CC[C@@H](Oc2ncc(C(C)(C)N)c3cc(Nc4ccc5c(n4)[C@@H](C)[C@H](C)OC5=O)ncc23)C1` [Compound 36], for which the IC50 was 0.65 nM.

Take `COC[C@@](C)(N)c1cnc(O[C@@H]2CN(C(=O)C3CC3)[C@H]2C)c2cnc(Nc3ccc4c(n3)[C@@H](C)[C@H](C)OC4=O)cc12` [Compound 91]: the half-maximal inhibitory concentration (IC50) amounted to 0.31 nM.

On to `COCC(=O)N1CC(Oc2ncc(C(C)(C)N)c3cc(Nc4ccc5c(n4)[C@@H](C)C(C)(C)OC5=O)ncc23)C1` [Compound 61], for which the IC50 was found to be 0.21 nM.

On to `CCOC(=O)N1CC(Oc2ncc(C(C)(C)N)c3cc(Nc4ccc5c(n4)[C@@H](C)[C@H](C)OC5=O)ncc23)C1` [Compound 37], for which the IC50 turned out to be 0.15 nM.

With `C[C@@H]1c2nc(Nc3cc4c(C(C)(C)N)cnc(O[C@H]5C[C@@H](C(=O)N6CC(F)C6)C5)c4cn3)ccc2C(=O)OC1(C)C` [Compound 94], the IC50 was 0.14 nM.

With `C[C@@H]1c2nc(Nc3cc4c(C(C)(C)N)cnc(OC5CN(C(=O)C6(O)CC6)C5)c4cn3)ccc2C(=O)OC1(C)C` [Compound 78], the 50% inhibitory concentration (IC50) was 0.43 nM.

In the case of `COC[C@@](C)(N)c1cnc(O[C@H]2C[C@H](C(=O)N(C)C)C2)c2cnc(Nc3ccc4c(n3)[C@@H](C)[C@H](C)OC4=O)cc12` [Compound 124], the IC50 amounted to 0.26 nM.

For `CC[C@@](C)(N)c1cnc(OC2CN(C(C)=O)C2)c2cnc(Nc3ccc4c(n3)[C@@H](C)C(C)(C)OC4=O)cc12` [Compound 32], the IC50 was determined as 0.17 nM.

For `COC(=O)N1CC[C@H](Oc2ncc(C(C)(C)N)c3cc(Nc4ccc5c(n4)[C@@H](C)[C@H](C)OC5=O)ncc23)C1` [Compound 35], the IC50 stood at 0.3 nM.

For `COC1(C(=O)N2CC(Oc3ncc(C(C)(C)N)c4cc(Nc5ccc6c(n5)[C@@H](C)[C@H](C)OC6=O)ncc34)C2)CC1` [Compound 79], the IC50 came to 0.31 nM.

In the case of `C[C@@H]1OC(=O)c2ccc(Nc3cc4c(C(C)(C)N)cnc(OC5CN(C(=O)[C@H]6CCCO6)C5)c4cn3)nc2[C@H]1C` [Compound 75], the IC50 stood at 0.38 nM.

For the molecule `CC(=O)N1CCC[C@@H]1COc1ncc(C(C)(C)N)c2cc(Nc3ccc4c(n3)[C@@H](C)C(C)(C)OC4=O)ncc12` [Compound 116], the IC50 came to 1.13 nM.

Consider `CCC(=O)N1CC(Oc2ncc(C(C)(C)N)c3cc(Nc4ccc5c(n4)C4(CC4)C(C)(C)OC5=O)ncc23)C1` [Compound 43], for which the concentration for half-maximal inhibition (IC50) was 0.22 nM.

On to `C[C@@H]1c2nc(Nc3cc4c(C(C)(C)N)cnc(OC[C@H]5C[C@@H]5C(=O)N(C)C)c4cn3)ccc2C(=O)OC1(C)C` (single isomer, unassigned) [Compound 105], for which the IC50 stood at 0.2 nM.

Take `C[C@@H]1OC(=O)c2ccc(Nc3cc4c(C(C)(C)N)cnc(O[C@H]5CCN(C(=O)C6CC6)C5)c4cn3)nc2[C@H]1C` [Compound 50]: the IC50 came to 0.32 nM.

For `C[C@@H]1OC(=O)c2ccc(Nc3cc4c(C(C)(C)N)cnc(OC5CN(C(=O)[C@@H]6CCOC6)C5)c4cn3)nc2[C@H]1C` [Compound 74], the IC50 came to 0.36 nM.

Turning to `CCC(=O)N1CC(Oc2ncc(C(C)(C)N)c3cc(Nc4ccc5c(n4)[C@@H](C)[C@H](C)OC5=O)ncc23)C1` [Compound 2], the IC50 came out at 0.38 nM.

For `COC(=O)N1CC(Oc2ncc(C(C)(C)N)c3cc(Nc4ccc5c(n4)[C@@H](C)C(C)(C)OC5=O)ncc23)C1` [Compound 38], the IC50 is 0.23 nM.

Consider `CC(=O)N1CC(C)(Oc2ncc(C(C)(C)N)c3cc(Nc4ccc5c(n4)[C@@H](C)[C@H](C)OC5=O)ncc23)C1` [Compound 26], for which the IC50 was 0.31 nM.

In the case of `CC[C@@H](N)c1cnc(OC2CN(C(=O)[C@@H]3C[C@@H]3F)C2)c2cnc(Nc3ccc4c(n3)[C@@H](C)[C@H](C)OC4=O)cc12` (single isomer, unassigned) [Compound 58], the IC50 was found to be 0.75 nM.

Regarding `CC(=O)N1CC(Oc2ncc(C(C)(C)N)c3cc(Nc4ccc5c(n4)CCOC5=O)ncc23)C1` [Compound 108], the IC50 was 2.86 nM.

As to `C[C@@H]1OC(=O)c2ccc(Nc3cc4c(C(C)(C)N)cnc(O[C@@H]5CN(C(=O)C6CC6)[C@H]5C)c4cn3)nc2[C@H]1C` [Compound 45], the IC50 was 0.16 nM.

For `C[C@@H]1c2nc(Nc3cc4c(C(C)(C)N)cnc(OC5CN(C(=O)C6(C(F)(F)F)CC6)C5)c4cn3)ccc2C(=O)OC1(C)C` [Compound 103], the 50% inhibitory concentration (IC50) stood at 0.24 nM.

Take `C[C@@H]1c2nc(Nc3cc4c(C(C)(C)N)cnc(OC[C@@H]5C[C@H]5C(=O)N(C)C)c4cn3)ccc2C(=O)OC1(C)C` (single isomer, unassigned) [Compound 104]: the half-maximal inhibitory concentration (IC50) turned out to be 0.2 nM.

In the case of `C[C@@H]1OC(=O)c2ccc(Nc3cc4c(C(C)(C)N)cnc(OC5CN(C(=O)C6(F)CC6)C5)c4cn3)nc2[C@H]1C` [Compound 60], the IC50 worked out at 0.16 nM.

For the molecule `C[C@@H]1OC(=O)c2ccc(Nc3cc4c(C(C)(C)N)cnc(OC5CN(C(=O)[C@@H]6C[C@@H]6C)C5)c4cn3)nc2[C@H]1C` [Compound 46], the IC50 worked out at 0.23 nM.

In the case of `C[C@@H]1OC(=O)c2ccc(Nc3cc4c(C(C)(C)N)cnc(OC5CN(C(=O)[C@H]6CCOC6)C5)c4cn3)nc2[C@H]1C` [Compound 73], the IC50 amounted to 0.32 nM.

Take `C[C@@H]1c2nc(Nc3cc4c(C(C)(C)N)cnc(OC[C@H]5C[C@H]5C(=O)N(C)C)c4cn3)ccc2C(=O)OC1(C)C` (single isomer, unassigned) [Compound 106]: the IC50 came out at 0.39 nM.

As to `CC(=O)N1CC(Oc2ncc(C(C)(C)N)c3cc(Nc4ccc5c(n4)[C@@H](C)COC5=O)ncc23)C1` (single isomer, unassigned) [Compound 18], the IC50 amounted to 3.06 nM.

Consider `COC[C@@](C)(N)c1cnc(OC2CN(C(=O)C3CC3)C2)c2cnc(Nc3ccc4c(n3)[C@@H](C)C(C)(C)OC4=O)cc12` [Compound 16], for which the IC50 was 0.47 nM.

Regarding `CC(=O)N1CC(Oc2ncc(C(C)(C)N)c3cc(Nc4ccc5c(n4)C(C)(C)COC5=O)ncc23)C1` [Compound 110], the IC50 came to 0.62 nM.

In the case of `CC(=O)N1CC(Oc2ncc(C(C)(C)N)c3cc(Nc4ccc5c(n4)C(C)(C)OC5=O)ncc23)C1` [Compound 109], the IC50 is 4 nM.

Take `CC[C@H](N)c1cnc(O[C@H]2C[C@@H](C(=O)N3CC(OC)C3)C2)c2cnc(Nc3ccc4c(n3)[C@@H](C)C(C)(C)OC4=O)cc12` (single isomer, unassigned) [Compound 126]: the IC50 was determined as 1.81 nM.
